From paper PMC3992933 (Peptides, 2014)
No end group written: not given here.

Columns and labels:
[1] = system: immobilized P. gingivalis hemagglutinin B (HagB); details: ref [2]; cited from earlier work
[2] = system: immobilized adhesins from the periodontal pathogen Porphyromonas gingivalis; details: ref [2], [5], [18]; cited from earlier work
[3] = molecular target: human serum albumin (HSA) (Homo sapiens, UniProt P02768); experiment: SPR spectroscopy, HBD binding to immobilized human serum albumin; details: in terms of absolute response and kinetic shape of binding
[4] = molecular target: Bla g2 from the German cockroach (Blattella germanica) (Blattella germanica); experiment: SPR

For histatin 5, the “binding to immobilized HagB (in words)” value [1] is listed as “bind specifically” and the “binding to immobilized adhesins from P. gingivalis (in words)” value [2] is listed as “specifically bind”.

In the case of “HBD1: human β-defensin used as a control β-defensin; purchased from PeproTech, Inc. (DHYNCVSSGGQCLYSACPIFTKIQGTCYRGKAKCCK; ends and bridges not checked; cysteine pairing not given here)”, the “binding to HSA compared with Bla g2 (in words)” value [3] is reported as “bound to immobilized HSA similar to Bla g2”.

Work on GIINTLQKYYCRVRGGRCAVLSCLPKEEQIGKCSTRGRKCCRRKK (ends and bridges not checked; cysteine pairing not given here) [Human β-defensin 3] yielded a Kd [4] of 5.9 µM.
